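These data come from cells grown in 96-well plates and exposed to compound for 48 hours at five concentrations. Here, GI50 denotes the concentration required for 50% inhibition of growth.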 Calls of active or inactive are those of the source. No stated cut-off is given here; in the data, active = GI50 up to about 1.1 µM and inactive = higher.
Experiments:
Assay in all cases: NCI-60 cell line screen, 48 h
A498 = tested on: A498
BT-549 = tested on: BT-549
HCT-15 = tested on: HCT-15
HL-60 = tested on: HL-60
Hs-578T = tested on: Hs-578T
M14 = tested on: M14
MOLT-4 = tested on: MOLT-4
NCI-H226 = tested on: NCI-H226
NCI-H460 = tested on: NCI-H460
NCI-H522 = tested on: NCI-H522
NCI/ADR-RES = tested on: NCI/ADR-RES
SK-MEL-28 = tested on: SK-MEL-28
SK-OV-3 = tested on: SK-OV-3
SNB-19 = tested on: SNB-19
SNB-75 = tested on: SNB-75
SR = tested on: SR
T47D = tested on: T47D
HCC 2998 = tested on: HCC 2998
LOX IMVI = tested on: LOX IMVI
HOP-92 = tested on: HOP-92

SMILES	GI50 (A498)	GI50 (BT-549)	GI50 (HCT-15)	GI50 (HL-60)	GI50 (Hs-578T)	GI50 (M14)	GI50 (MOLT-4)	GI50 (NCI-H226)	GI50 (NCI-H460)	GI50 (NCI-H522)	GI50 (NCI/ADR-RES)	GI50 (SK-MEL-28)	GI50 (SK-OV-3)	GI50 (SNB-19)	GI50 (SNB-75)	GI50 (SR)	GI50 (T47D)	GI50 (HCC 2998)	GI50 (LOX IMVI)	GI50 (HOP-92)
O=C(O)c1cc(-c2ccc3cc(O)c(O)cc3c2)ccc1O	> 12.5 µM (inactive)	> 12.5 µM (inactive)	> 12.5 µM	> 12.5 µM (inactive)	> 12.5 µM (inactive)	> 12.5 µM (inactive)	> 12.5 µM (inactive)	> 12.5 µM (inactive)	> 12.5 µM (inactive)	> 12.5 µM (inactive)	> 12.5 µM (inactive)	> 12.5 µM (inactive)	> 12.5 µM (inactive)	> 12.5 µM (inactive)	4.94 µM (inactive)	> 12.5 µM (inactive)	> 12.5 µM (inactive)	–	–	–
Nc1ccc(I)cn1	> 100 µM (inactive)	> 100 µM (inactive)	> 100 µM	> 100 µM (inactive)	> 100 µM (inactive)	> 100 µM (inactive)	> 100 µM (inactive)	> 100 µM (inactive)	> 100 µM (inactive)	> 100 µM (inactive)	> 100 µM (inactive)	> 100 µM (inactive)	> 100 µM (inactive)	> 100 µM (inactive)	> 100 µM (inactive)	> 100 µM (inactive)	> 100 µM (inactive)	> 100 µM (inactive)	> 100 µM (inactive)	–
O=C(CC(=O)N1N=C(N2c3ccccc3Sc3ccccc32)CC1c1ccccc1)Nc1ccccc1Cl (configuration not stated)	> 100 µM (inactive)	> 100 µM (inactive)	> 100 µM	> 100 µM (inactive)	> 100 µM (inactive)	> 100 µM (inactive)	> 100 µM (inactive)	> 100 µM (inactive)	> 100 µM (inactive)	> 100 µM (inactive)	> 100 µM (inactive)	> 100 µM (inactive)	–	> 100 µM (inactive)	> 100 µM (inactive)	–	> 100 µM (inactive)	> 100 µM (inactive)	–	> 100 µM (inactive)
C=CC(=O)Nc1ccc(NC(=O)C=C)c2c1C(=O)c1ccccc1C2=O	> 100 µM (inactive)	29.9 µM (inactive)	41.9 µM	3.86 µM (inactive)	> 100 µM (inactive)	29.6 µM (inactive)	21.6 µM (inactive)	–	> 100 µM (inactive)	16.6 µM (inactive)	> 100 µM (inactive)	33.5 µM (inactive)	–	> 100 µM (inactive)	–	28.1 µM (inactive)	> 100 µM (inactive)	> 100 µM (inactive)	5.07 µM (inactive)	–
CC(=O)OCC(OC(C)=O)C(OC(C)=O)C(OC(C)=O)C(C=NN(C(C)=O)S(=O)(=O)c1ccc(/C=C2\NC(=O)NC2=O)cc1)OC(C)=O (configuration not stated)	> 100 µM (inactive)	> 100 µM (inactive)	> 100 µM	–	> 100 µM (inactive)	> 100 µM (inactive)	> 100 µM (inactive)	> 100 µM (inactive)	> 100 µM (inactive)	> 100 µM (inactive)	> 100 µM (inactive)	–	> 100 µM (inactive)	> 100 µM (inactive)	> 100 µM (inactive)	–	> 100 µM (inactive)	> 100 µM (inactive)	> 100 µM (inactive)	–
COC(=O)/C(=N\NC(=S)NN)C(C(=O)OC)C(=O)C(=O)Nc1cccc(C(F)(F)F)c1 (configuration not stated)	> 100 µM (inactive)	> 100 µM (inactive)	> 100 µM	> 100 µM (inactive)	> 100 µM (inactive)	> 100 µM (inactive)	–	> 100 µM (inactive)	> 100 µM (inactive)	> 100 µM (inactive)	> 100 µM (inactive)	49.3 µM (inactive)	> 100 µM (inactive)	> 100 µM (inactive)	> 100 µM (inactive)	–	> 100 µM (inactive)	> 100 µM (inactive)	> 100 µM (inactive)	> 100 µM (inactive)
CCOC(=O)c1cc(Br)c(-c2cc(C)co2)[nH]1	> 100 µM (inactive)	> 100 µM (inactive)	> 100 µM	55.7 µM (inactive)	84.5 µM (inactive)	> 100 µM (inactive)	54.6 µM (inactive)	> 100 µM (inactive)	> 100 µM (inactive)	–	> 100 µM (inactive)	> 100 µM (inactive)	> 100 µM (inactive)	> 100 µM (inactive)	> 100 µM (inactive)	31.8 µM (inactive)	> 100 µM (inactive)	> 100 µM (inactive)	> 100 µM (inactive)	> 100 µM (inactive)
C=C(C)[C@@H]1CCc2c(c(C)cc(O)c(=O)c2O)C1	–	8.95 µM (inactive)	0.0838 µM	0.462 µM (active)	2.16 µM (inactive)	1.47 µM (inactive)	1.4 µM (inactive)	2.72 µM (inactive)	0.102 µM (active)	0.247 µM (active)	0.583 µM (active)	4.63 µM (inactive)	1.49 µM (inactive)	1.13 µM (inactive)	3.68 µM (inactive)	0.515 µM (active)	3.8 µM (inactive)	1.76 µM (inactive)	0.695 µM (active)	0.573 µM (active)
S=C1CSc2c(cnc3ccccc23)N1	–	71.4 µM (inactive)	> 100 µM	> 100 µM (inactive)	20 µM (inactive)	> 100 µM (inactive)	> 100 µM (inactive)	53.7 µM (inactive)	56.6 µM (inactive)	> 100 µM (inactive)	> 100 µM (inactive)	> 100 µM (inactive)	> 100 µM (inactive)	> 100 µM (inactive)	56.8 µM (inactive)	> 100 µM (inactive)	80.5 µM (inactive)	–	> 100 µM (inactive)	–
O=C1/C(=C/Cc2ccco2)N=C(c2ccccc2)N1c1nc2ccc(Sc3ccccc3)cc2[nH]1	8.36 µM (inactive)	20.3 µM (inactive)	30.5 µM	21.7 µM (inactive)	18.9 µM (inactive)	19.7 µM (inactive)	16.3 µM (inactive)	–	26.9 µM (inactive)	–	23.6 µM (inactive)	28.2 µM (inactive)	25.9 µM (inactive)	33.2 µM (inactive)	19.5 µM (inactive)	13.6 µM (inactive)	32.1 µM (inactive)	16.9 µM (inactive)	18.8 µM (inactive)	18.7 µM (inactive)
O=[N+]([O-])c1ccc2c(c1)nc(Cc1ccccc1)n2C[C@@H]1CCCN2CCCCC12 (some centres not stated)	13.4 µM (inactive)	26.7 µM (inactive)	36.9 µM	< 0.01 µM (active)	38.5 µM (inactive)	18.2 µM (inactive)	17.4 µM (inactive)	89.9 µM (inactive)	41.4 µM (inactive)	21.6 µM (inactive)	22.9 µM (inactive)	18.6 µM (inactive)	34.4 µM (inactive)	56.4 µM (inactive)	63.5 µM (inactive)	–	39.4 µM (inactive)	12.9 µM (inactive)	20.4 µM (inactive)	3.71 µM (inactive)
[N-]=[N+]=Nc1cc(=O)[nH]c2ccccc12	–	83.2 µM (inactive)	–	–	44.3 µM (inactive)	> 100 µM (inactive)	92.5 µM (inactive)	45.9 µM (inactive)	–	> 100 µM (inactive)	> 100 µM (inactive)	> 100 µM (inactive)	85.3 µM (inactive)	> 100 µM (inactive)	32.3 µM (inactive)	41.3 µM (inactive)	64.9 µM (inactive)	–	–	85.3 µM (inactive)
N#Cc1c(N)c2c(c(-c3ccccc3)c1-c1ccccc1)C(=O)N(N)C2=O	–	> 100 µM (inactive)	> 100 µM	44 µM (inactive)	60.1 µM (inactive)	> 100 µM (inactive)	70.6 µM (inactive)	> 100 µM (inactive)	> 100 µM (inactive)	38.6 µM (inactive)	56 µM (inactive)	> 100 µM (inactive)	> 100 µM (inactive)	> 100 µM (inactive)	> 100 µM (inactive)	> 100 µM (inactive)	49.4 µM (inactive)	> 100 µM (inactive)	–	26.9 µM (inactive)
CCOC(=O)CCCn1nnc(C(=O)OCC)c1C(=O)OCC	–	> 100 µM (inactive)	> 100 µM	–	> 100 µM (inactive)	–	> 100 µM (inactive)	> 100 µM (inactive)	> 100 µM (inactive)	–	> 100 µM (inactive)	> 100 µM (inactive)	–	> 100 µM (inactive)	> 100 µM (inactive)	> 100 µM (inactive)	> 100 µM (inactive)	> 100 µM (inactive)	> 100 µM (inactive)	> 100 µM (inactive)
CCOC(=O)c1c[nH]c2c(Sc3ccccc3)nccc2c1=O	> 100 µM (inactive)	30.7 µM (inactive)	> 100 µM	27.5 µM (inactive)	> 100 µM (inactive)	> 100 µM (inactive)	17.8 µM (inactive)	95.3 µM (inactive)	> 100 µM (inactive)	19.7 µM (inactive)	> 100 µM (inactive)	> 100 µM (inactive)	> 100 µM (inactive)	> 100 µM (inactive)	71.1 µM (inactive)	–	18.3 µM (inactive)	–	31 µM (inactive)	46.9 µM (inactive)
Cc1cc(O)c2c(c1O)C(=O)c1cccc(O)c1C2=O [ISLANDICIN]	–	> 100 µM (inactive)	> 100 µM	60.8 µM (inactive)	> 100 µM (inactive)	> 100 µM (inactive)	–	> 100 µM (inactive)	> 100 µM (inactive)	47.8 µM (inactive)	> 100 µM (inactive)	> 100 µM (inactive)	> 100 µM (inactive)	> 100 µM (inactive)	43.1 µM (inactive)	–	> 100 µM (inactive)	> 100 µM (inactive)	> 100 µM (inactive)	> 100 µM (inactive)
